Measured values as given in patent US20220233565A1, “REDUCED NICOTINAMIDERIBOSIDES FOR TREATING/PREVENTING SKELETAL MUSCLE DISEASE” (SOCIETE DES PRODUITS NESTLE S.A., priority 2019, published 2022).
Entries after “also recorded” stand apart in the source; their conditions may differ. Structures can show the parent of a compound that is named as a salt.

Tests used:
adenosine kinase (AK) = biological target: T1, adenosine kinase (AK) (Mus musculus, UniProt P55264); assay: NRH-induced NAD+ synthesis under adenosine kinase inhibition; type: cell-based; parameters: effect of AK inhibitor on the action of NRH (NAD+ synthesis): dose or concentration left out as unconfirmed; conditions: for effect of AK inhibitor on the action of NRH (NAD+ synthesis): AML12 cells, inhibitor 1 hour prior to NRH (5-IT), NAD+ 1 hour later
T1 construct: endogenous in cells; host or cells: AML12 cells
T1 sequence (P55264 whole entry): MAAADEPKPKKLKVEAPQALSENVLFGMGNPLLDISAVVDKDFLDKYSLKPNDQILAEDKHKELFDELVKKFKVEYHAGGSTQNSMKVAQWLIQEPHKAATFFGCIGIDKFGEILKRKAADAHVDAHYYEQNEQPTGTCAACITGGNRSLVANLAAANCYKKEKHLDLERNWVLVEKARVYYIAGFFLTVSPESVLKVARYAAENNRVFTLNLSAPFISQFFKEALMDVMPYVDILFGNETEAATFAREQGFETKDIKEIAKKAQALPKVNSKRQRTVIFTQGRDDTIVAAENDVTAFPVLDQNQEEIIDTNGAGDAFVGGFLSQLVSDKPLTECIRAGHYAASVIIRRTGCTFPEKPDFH
Method: FIG. 4. […] AML12 cells were treated with an adenosine kinase inhibitor (5-IT; […]) for 1 hour prior to NRH treatment at the doses indicated. Then, 1 hour later, acidic extracts were obtained to measure NAD^+ levels. All values in the figure are expressed as mean+/−SEM of 3 independent experiments. * indicates statistical difference at p<0.05 vs. the respective vehicle treated group.

INS1-cells = assay: NAD+ levels in INS1-cells after NRH treatment; type: cell-based
Method: (§1) The ability of NRH to potently increase NAD+ was tested as well in other cell type models.

[1] = Oral gavage in mice: NRH levels in tissues; type: in vivo; conditions: 2 hours after gavage (250 mg/kg)
Method: 8 week-old C57BI/6NTac mice were orally gavaged with either saline (as vehicle), and NRH (250 mg/kg). After 2 hours, liver, skeletal muscle and kidney NRH levels were evaluated. All results are expressed as mean+/−SEM of n=4 mice per group, as areas under the signal by LC-MS analysis, corrected by total protein amount of tissue.
(§2) Levels of NRH and other NAD-related metabolites in biological samples were obtained by using a cold liquid-liquid extraction using a mixture of methanol:water:chloroform in 5:3:5 (v/v), from which the polar phase was recovered for hydrophilic interaction ultra-high performance liquid chromatography mass spectrometry (UHPLC-MS) analysis. The UHPLC consisted of a binary pump, a cooled autosampler, and a column oven (DIONEX Ultimate 3000 UHPLC+ Focused, Thermo Scientific), connected to a triple quadrupole spectrometer (TSQ Vantage, Thermo Scientific) equipped with a heated electrospray ionisation (H-ESI) source. Of each sample, 2 μL were injected into the analytical column (2.1 mm×150 mm, 5 μm pore size, 200 Å HILICON iHILIC®-Fusion(P)), guarded by a pre-column (2.1 mm×20 mm, 200 Å HILICON iHILIC®-Fusion(P) Guard Kit) operating at 35° C. The mobile phase (10 mM ammonium acetate at pH 9, A, and acetonitrile, B) was pumped at 0.25 mL/min flow rate over a linear gradient of decreasing organic solvent (0.5-16 min, 90-25% B), followed by re-equilibration for a total run time of 30 min. The MS operated in positive mode at 3500 V with multiple reaction monitoring (MRM). The software Xcalibur v4.1.31.9 (Thermo Scientific) was used for instrument control, data acquisition and processing. Retention time and mass detection was confirmed by authentic standards.

AML12 hepatocytes = assay: Intracellular NAD+ levels in AML12 hepatocytes (dose-response and time course); type: cell-based
Method: Starting at levels at a concentration of 10 μM, NRH achieved similar increases in intracellular NAD+ levels to those reached with NR at 50-fold higher concentrations. NRH achieved maximal effects on NAD+ synthesis around the millimolar range, managing to increase intracellular NAD+ levels by more than 10-fold.
NRH actions were also extremely fast, as significant increases in NAD+ levels were observed within 5 minutes after NRH treatment.
Even at such relatively low dose, NRH achieved similar increases in intracellular NAD+ levels to those reached with NR at 50-fold higher concentrations. NRH achieved maximal effects on NAD+ synthesis around the millimolar range, managing to increase intracellular NAD+ levels by more than 10-fold.
NRH actions were also extremely fast (FIG. 3), as significant increases in NAD+ levels were observed within 5 minutes after NRH treatment.

[2] = Intraperitoneal injection in mice: tissue NAD+ and circulating metabolites; type: in vivo; conditions: for NAM levels in circulation / NAD+ levels in kidney / NAD+ levels in liver / NAD+ levels in muscle: IP 500 mg/kg; for NAD+ levels in kidney / NAD+ levels in liver / NAD+ levels in muscle: after 1 h
From the text: as §2
The above results prompted us to test whether NRH could act as an effective NAD+ precursor in vivo. For this, we first intraperitoneally (IP) injected mice with either NR or NRH (500 mg/kg). […] Importantly, NRH was detectable in circulation after IP injection.

[3] = test system: equilibrative nucleoside transporters (ENTs); assay: NRH as extracellular NAD+ precursor under blockage of ENT-mediated transport (NBTI); type: cell-based; conditions: in the presence of NBTI
From the text: In order to understand the exact path by which NRH synthesizes NAD+, we initially evaluated whether NRH, could be transported into the cell by equilibrative nucleoside transporters (ENTs).

NRK1 = assay: NAD+ levels in primary hepatocytes from control or NRK1 knockout mice; type: cell-based; conditions: 1 hour of treatment
From the text: (§3) The action of NRH was also NAMPT-independent, based on experiments using FK866, a NAMPT inhibitor. If NRH led to NAD+ synthesis via the formation of NMNH, this hypothetical path would require the phosphorylation of NRH into NMNH. Given the essential and rate-limiting role of NRK1 in NR phosphorylation, we wondered whether the ability of NRH to boost NAD+ levels was NRK1 dependent. To answer this question, we evaluated NRH action in primary hepatocytes from either control or NRK1 knockout (NRK1KO) mice. […] Further, they rule out the possibility that NRH-induced NAD+ […] is driven by NRH oxidation into NR.

[4] = Oral gavage in mice: hepatic NAD+ and plasma metabolites; type: in vivo; conditions: for administered compound in plasma: 1 h after oral administration
Method: 8 week-old C57BI/6NTac mice were orally gavaged with either saline (as vehicle), NR (500 mg/kg) or NRH (500 mg/kg). After 1 hour, liver, skeletal muscle and kidney NAD levels were evaluated. All results are expressed as mean+/−SEM of n=5 mice per group. * indicates statistical difference at p<0.05 vs. vs. saline-treated mice. # indicates statistical difference at p<0.05 vs. NR treated mice.
as §2
Oral administration of NRH led to very similar results to those observed after IP administration. […] NRH was detectable in plasma 1 h after oral administration. In contrast, NR levels were undetectable at 1 h after NR administration.

Stability in water = type: physicochemical; conditions: pH=7, room temperature
Method: (§4) NR degradation to NAM has been proposed as a limitation for its pharmacological efficacy. To evaluate whether NRH was also susceptible to degradation to NAM, we spiked NRH or NR in isolated mouse plasma. […] We also tested the stability of NRH in other matrixes. […] Finally, we also certified NRH stability in water (pH=7, at room temperature) for 48 h.

3T3 fibroblasts = assay: NAD+ levels in 3T3 fibroblasts after NRH treatment; type: cell-based
Method: as §1

C2C12 myotubes = assay: NAD+ levels in C2C12 myotubes after NRH treatment; type: cell-based
Method: as §1

[5] = Stability in FBS supplemented media; type: in vitro ADME
Method: as §4

NAMPT = biological target: T2, NAMPT (Mus musculus, UniProt Q99KQ4); assay: NRH action in presence of NAMPT inhibitor FK866; type: cell-based; conditions: with FK866, a NAMPT inhibitor
T2 construct: endogenous in cells
T2 sequence (Q99KQ4 whole entry): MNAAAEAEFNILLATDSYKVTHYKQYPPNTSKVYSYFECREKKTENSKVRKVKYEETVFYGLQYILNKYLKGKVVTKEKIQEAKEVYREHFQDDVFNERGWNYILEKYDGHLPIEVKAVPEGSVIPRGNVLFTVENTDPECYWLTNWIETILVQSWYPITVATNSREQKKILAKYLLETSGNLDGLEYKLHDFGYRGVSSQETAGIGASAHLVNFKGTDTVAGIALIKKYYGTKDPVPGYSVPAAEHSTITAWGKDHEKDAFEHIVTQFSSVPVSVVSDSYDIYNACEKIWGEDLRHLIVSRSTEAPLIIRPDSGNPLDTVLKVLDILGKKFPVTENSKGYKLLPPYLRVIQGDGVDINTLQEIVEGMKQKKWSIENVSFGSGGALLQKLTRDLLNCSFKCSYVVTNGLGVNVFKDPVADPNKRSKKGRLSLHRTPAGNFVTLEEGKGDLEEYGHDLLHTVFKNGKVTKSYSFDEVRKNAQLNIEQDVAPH
From the text: as §3

NAD+ synthesis = assay: Intracellular NAD+ related metabolites after treatment (UHPLC-MS); type: cell-based; conditions: for intracellular detection of NRH and NMNH: 5 minutes after treatment
From the text: as §2
A path in which NRH would be converted to NMNH, then to NADH and this would be finally oxidized to NAD+.

[6] = Stability in isolated mouse plasma; type: in vitro ADME; conditions: for generation of NAM in plasma / level of spiked compound in plasma: isolated mouse plasma, 2 h of incubation
From the text: as §2, §4

NMNAT = assay: NRH-induced NAD+ synthesis under NMNAT inhibition (gallotannin); type: cell-based
From the text: As a follow-up step, NMNAT enzymes could catalyze the transition from NMNH to NADH. […] Yet, part of the NRH action remained after gallotannin treatment when NRH was used at maximal doses.

Nc1ncnc2nc(-c3ccc(N4CCOCC4)nc3)cc(-c3cccc(Br)c3)c12 [ABT-702]
effect of AK inhibitor on the action of NRH (NAD+ synthesis) (adenosine kinase (AK)): confirmed

NC(=O)C1=CN([C@@H]2O[C@H](CO)[C@@H](O)[C@H]2O)C=CC1 [NRH, reduced nicotinamide riboside]
NAD+ levels (INS1-cells): highly elevated | NRH in kidney [1]: found intact, in high levels | NRH in liver [1]: found intact, in high levels | NRH in muscle [1]: found intact, in high levels | ability to increase intracellular NAD+ compared with NR (AML12 hepatocytes; AML12 hepatocytes): better than NR; also recorded: superior to that of NR | time to significant increase in NAD+ levels after treatment (AML12 hepatocytes; AML12 hepatocytes (FIG. 3)): ≤ 5 min | increase of intracellular NAD+ levels (maximal effect) (AML12 hepatocytes; AML12 hepatocytes, around the millimolar range): more than 10 fold | concentration at which NAD+ levels were significantly increased (AML12 hepatocytes; AML12 hepatocytes, dose-response (FIG. 2)): 10 µM | fold higher NR concentration needed for similar increase in intracellular NAD+ (AML12 hepatocytes; NRH at 10 μM versus NR): 50 fold | NAM levels in circulation [2]: only a very mild increase | NAD+ levels in kidney [2]: increased | NAD+ levels in liver [2]: increased | NAD+ levels in muscle [2]: increased | NRH in circulation ([2]; after IP injection): detectable | NR in circulation ([2]; after IP injection, compared with NR injection): much higher levels than those detected after NR injection itself | capacity as extracellular NAD+ precursor under ENT blockage [3]: largely lost its capacity | NAD+ levels in NRK1KO derived primary hepatocytes (NRK1): not affected by NRK1 deficiency | generation of NMNH, NADH and NAD+ from NRH upon inhibition of AK (adenosine kinase (AK); metabolomic analyses): fully blunted | administered compound in plasma [4]: detectable | NRH concentration in plasma ([4]; after oral gavage): 11.16 ± 1.74 µM | effect on hepatic NAD+ levels compared with NR ([4]; oral administration): more potent effect | time for which stability in water was certified (Stability in water): 48 h | NAD+ levels (3T3 fibroblasts): highly elevated | NAD+ levels (C2C12 myotubes): highly elevated | degradation to NAM in FBS supplemented media [5]: did not degrade to NAM | dependence of action on NAMPT (NAMPT): NAMPT-independent | intracellular detection of NRH and NMNH (NAD+ synthesis): could be detected | intracellular NR and NMN (NAD+ synthesis; after treatment, compared with NR): greater than that triggered by NR itself | NR production in plasma ([6]; incubation in isolated plasma): did not lead to NR production | generation of NAM in plasma [6]: not generated; also recorded: did not significantly alter NAM levels | level of spiked compound in plasma [6]: remained stable

O=C(OC[C@H]1O[C@@H](OC(=O)c2cc(O)c(O)c(OC(=O)c3cc(O)c(O)c(O)c3)c2)[C@H](OC(=O)c2cc(O)c(O)c(OC(=O)c3cc(O)c(O)c(O)c3)c2)[C@@H](OC(=O)c2cc(O)c(O)c(OC(=O)c3cc(O)c(O)c(O)c3)c2)[C@@H]1OC(=O)c1cc(O)c(O)c(OC(=O)c2cc(O)c(O)c(O)c2)c1)c1cc(O)c(O)c(OC(=O)c2cc(O)c(O)c(O)c2)c1 [gallotannin]
effect of NMNAT inhibitor on NAD+ synthesis after NRH treatment (NMNAT; NRH at maximal doses (0.5 mM)): largely compromised | effect of NMNAT inhibitor on NRH action (NMNAT; NRH at submaximal doses): totally blocked

Nc1ncnc2c1c(I)cn2[C@@H]1O[C@H](CO)[C@@H](O)[C@H]1O [5-IT, 5-iodotubercidin]
effect of AK inhibitor on the action of NRH (NAD+ synthesis) (adenosine kinase (AK)): fully ablated | formation of NR and NMN after NRH treatment (adenosine kinase (AK); with AK inhibitor): prevented

NC(=O)c1ccc[n+]([C@@H]2O[C@H](CO)[C@@H](O)[C@H]2O)c1 [NR, 1-b-D-ribofuranosyl-3-pyridinecarboxamide salt, reference compound]
NAM levels in circulation [2]: highly increased | NAD+ levels in kidney [2]: increased | NAD+ levels in liver [2]: increased | NAD+ levels in muscle [2]: increased | NAD+ levels in NRK1KO derived primary hepatocytes (NRK1): failed to increase NAD+ levels | administered compound in plasma [4]: undetectable | circulating NAM ([4]; oral administration): large increases | intracellular detection of NRH and NMNH (NAD+ synthesis): not | generation of NAM in plasma [6]: increase in NAM | level of spiked compound in plasma [6]: decayed
